Reference: the supplement of paper PMC11208160

assay: recombinant barcode read abundance after kanamycin selection (control-corrected) (log10(CPM+1)); higher = more efficient recombination; sequences stand for … in AGTGCAGAGAAAATCGGCCAGTTTTCTCTGCCTGCAGTCCGCATGCCGT…AGATTTATGCAGCGGACTGCCTTTCTCCCAAAGTGATAAACCGGACAGTATCATGGACCGGTTTTCCCGGTAATCCGTATTTGCAAGGTTGGTTTCACT; site = the 11-nt target
In short: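 Recombination efficiency in this pooled E. coli screen uses counts per million of barcodes at recombinant junctions, averaged and corrected against the control. The reported form is log10(CPM+1). Two replicates were plated on chloramphenicol/ampicillin LB agar as control and two on chloramphenicol/ampicillin/kanamycin with 0.1 mM IPTG.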
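Note: IS621 recombinase and bridge RNA in Escherichia coli cells.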

Going from “AGTAGGACTTGGGTTCTAACCTGTTGCAG (site AGCAGGGCTCT)” to “CAGTGGCCTTGGGTTCTAACCTGTTGCCT (site CAGAGGCCTAG)”, the “recombinant barcode read abundance (log10)” value falls from 0.474 to 0.0837.

“CGGGGCACTTGGGTTCTAACCTGTTGCCT (site CGGGGCACTAG)” and “GGAATCCCTTGGGTTCTAACCTGTTGCCT (site GGAATGCCTAG)” are within 0.2 log units of each other in “recombinant barcode read abundance (log10)” value: 0.606 for the first, 0.463 for the second.

Compared with “GCAGGTACTTGGGTTCTAACCTGTTGCCT (site CCAGGTACTAG)”, “GTAGTAACTTGGGTTCTAACCTGTTGCCT (site GTAGTACCTAG)” is lower in “recombinant barcode read abundance (log10)” value: 0.401 for the first, 0.104 for the second.

“AGGTCTACTTGGGTTCTAACCTGTTGCTT (site AGGTCTACTAA)” and “ACATGAACTTGGGTTCTAACCTGTTGCCT (site ACGTGAACTAG)” are within 0.2 log units of each other in “recombinant barcode read abundance (log10)” value: 0.296 for the first, 0.0989 for the second.

“AGGATAGCTTGGGTTCTAACCTGTTGCTG (site AGAATAGCTCT)” and “ATTTGCCCTTGGGTTCTAACCTGTTGCCT (site AGTTGCCCTAG)” are within 0.2 log units of each other in “recombinant barcode read abundance (log10)” value: 0.148 for the first, 0.0335 for the second.

“GCCCGATCTTGGGTTCTAACCTGTTGCCT (site GCCCTATCTAG)” and “CGCTGACCTTGGGTTCTAACCTGTTGCTT (site CGCTGTCCTAA)” are within 0.2 log units of each other in “recombinant barcode read abundance (log10)” value: 0.0709 for the first, 0.231 for the second.

“CAGCGTGCTTGGGTTCTAACCTGTTGCCT (site CGGCGTGCTAG)” and “CATTATCCTTGGGTTCTAACCTGTTGCCT (site CATTATCCTAG)” are within 0.2 log units of each other in “recombinant barcode read abundance (log10)” value: 0.216 for the first, 0.136 for the second.

Compared with “TAGTACCCTTGGGTTCTAACCTGTTGCAC (site TAGTACCCTGT)”, “TAGATCACTTGGGTTCTAACCTGTTGCAT (site TAGATCACTAT)” is lower in “recombinant barcode read abundance (log10)” value: 1.28 for the first, 0.629 for the second.

Compared with “ACCTGAACTTGGGTTCTAACCTGTTGCCT (site ACTTGAACTAG)”, “GTTTATACTTGGGTTCTAACCTGTTGCCT (site GTTTATACTAG)” is higher in “recombinant barcode read abundance (log10)” value: 0.0237 for the first, 0.305 for the second.

Compared with “GGGGCACCTTGGGTTCTAACCTGTTGCGT (site GGGGCACCTAG)”, “GTCCACTCTTGGGTTCTAACCTGTTGCTT (site GTCCAGTCTAC)” is lower in “recombinant barcode read abundance (log10)” value: 0.492 for the first, 0 for the second.

“CGGGCTACTTGGGTTCTAACCTGTTGCCA (site TCCTAATCTAA)” and “ATTAGTGCTTGGGTTCTAACCTGTTGCCT (site AGTAGTGCTAG)” are within 0.2 log units of each other in “recombinant barcode read abundance (log10)” value: 0.00664 for the first, 0.118 for the second.

Going from “TACGACACTTGGGTTCTAACCTGTTGCCT (site TCCGACACTAG)” to “GACGGATCTTGGGTTCTAACCTGTTGCGT (site GACGGATCTAG)”, the “recombinant barcode read abundance (log10)” value rises from 0.0501 to 0.569.

Going from “GGAAAGACTTGGGTTCTAACCTGTTGCAC (site TACCGCCCTAC)” to “CAAATCCCTTGGGTTCTAACCTGTTGCGT (site CAAATCCCTAC)”, the “recombinant barcode read abundance (log10)” value rises from 0.128 to 2.08.

“AGGGCAGCTTGGGTTCTAACCTGTTGCCT (site AGGGAAGCTAG)” and “ACGACGTCTTGGGTTCTAACCTGTTGCTT (site ACGACGTCTAA)” are within 0.2 log units of each other in “recombinant barcode read abundance (log10)” value: 0.135 for the first, 0.292 for the second.

“GCACTCCCTTGGGTTCTAACCTGTTGCCT (site GCTCTCCCTAG)” and “TCTGGGGCTTGGGTTCTAACCTGTTGCAG (site TCTGGGGCTCA)” are within 0.2 log units of each other in “recombinant barcode read abundance (log10)” value: 0.831 for the first, 0.686 for the second.

First: CTACGGCCTTGGGTTCTAACCTGTTGCGT (site CTACGGCCTAC)
Second: GATCTAGCTTGGGTTCTAACCTGTTGCAT (site CATATAGCTAT)
The “recombinant barcode read abundance (log10)” value of the first is higher: 1.05 for the first, 0.0793 for the second.

Compared with “TACCGCTCTTGGGTTCTAACCTGTTGCTT (site TACCGCTCTAA)”, “ATGCGAGCTTGGGTTCTAACCTGTTGCAG (site ATGCGAGCTCC)” is lower in “recombinant barcode read abundance (log10)” value: 1.01 for the first, 0.0805 for the second.

“ATCGTTGCTTGGGTTCTAACCTGTTGCCT (site GTCGTTGCTAG)” and “AGAATGTCTTGGGTTCTAACCTGTTGCCT (site AGAACGTCTAG)” are within 0.2 log units of each other in “recombinant barcode read abundance (log10)” value: 0.0617 for the first, 0.0676 for the second.

“TAGTACCCTTGGGTTCTAACCTGTTGCAC (site TAGTACCCTTT)” and “GAAATAACTTGGGTTCTAACCTGTTGCGT (site AGCCCTCCTCT)” are within 0.2 log units of each other in “recombinant barcode read abundance (log10)” value: 0.0304 for the first, 0.169 for the second.

Compared with “TAGGGCCCTTGGGTTCTAACCTGTTGCCT (site TAGGGCCCTAG)”, “GGGCCCGCTTGGGTTCTAACCTGTTGCTA (site GGTCCCGCTTG)” is lower in “recombinant barcode read abundance (log10)” value: 1.15 for the first, 0.0696 for the second.

“CCATACCCTTGGGTTCTAACCTGTTGCTA (site ATCATAGCTGC)” and “AGTCGTTCTTGGGTTCTAACCTGTTGCCT (site GAGTTCACTCT)” are within 0.2 log units of each other in “recombinant barcode read abundance (log10)” value: 0.019 for the first, 0.141 for the second.

“TAACGTACTTGGGTTCTAACCTGTTGCTT (site TAAAGTACTAA)” and “CCTGATTCTTGGGTTCTAACCTGTTGCCT (site CCTGATTCTAG)” are within 0.2 log units of each other in “recombinant barcode read abundance (log10)” value: 0.137 for the first, 0.322 for the second.

“CGGGGTTCTTGGGTTCTAACCTGTTGCCT (site CCGGGTTCTAG)” and “GTGTGGCCTTGGGTTCTAACCTGTTGCTT (site GTGTGGCCTAA)” are within 0.2 log units of each other in “recombinant barcode read abundance (log10)” value: 0.167 for the first, 0.294 for the second.

Going from “CTAAGGTCTTGGGTTCTAACCTGTTGCTT (site CTAAGGTCTAA)” to “GACACGCCTTGGGTTCTAACCTGTTGCAT (site GACACGCCTAA)”, the “recombinant barcode read abundance (log10)” value falls from 0.462 to 0.0135.

Going from “TAGGGTACTTGGGTTCTAACCTGTTGCGC (site TAGGGTACTGC)” to “GCCCGGGCTTGGGTTCTAACCTGTTGCGG (site GCCCGGGCTCC)”, the “recombinant barcode read abundance (log10)” value falls from 2.85 to 2.39.

“AATAACCCTTGGGTTCTAACCTGTTGCCT (site ATTAACCCTAG)” and “CTCTCGGCTTGGGTTCTAACCTGTTGCCT (site CTCTTGGCTAG)” are within 0.2 log units of each other in “recombinant barcode read abundance (log10)” value: 0.0794 for the first, 0.0157 for the second.

“CCACTTCCTTGGGTTCTAACCTGTTGCCT (site CCACTGCCTAG)” and “GTCTTCTCTTGGGTTCTAACCTGTTGCTT (site GTCTACTCTCA)” are within 0.2 log units of each other in “recombinant barcode read abundance (log10)” value: 0.0522 for the first, 0.0691 for the second.

First: TGTCGGACTTGGGTTCTAACCTGTTGCAT (site TGTCGGACTAT)
Second: TTGGATCCTTGGGTTCTAACCTGTTGCCT (site TTGGATCCTAA)
The “recombinant barcode read abundance (log10)” value of the first is higher: 1.32 for the first, 0.382 for the second.

Going from “GCCGATACTTGGGTTCTAACCTGTTGCCT (site GCCGAGACTAG)” to “GGTCCGGCTTGGGTTCTAACCTGTTGCGG (site GGTCCGGCTCC)”, the “recombinant barcode read abundance (log10)” value rises from 0.197 to 1.61.

“AAGGTCACTTGGGTTCTAACCTGTTGCTG (site GTACATCCTAC)” and “GCAAAGCCTTGGGTTCTAACCTGTTGCCT (site GCACAGACTAG)” are within 0.2 log units of each other in “recombinant barcode read abundance (log10)” value: 0.0968 for the first, 0.195 for the second.

Going from “ACAAAGACTTGGGTTCTAACCTGTTGCGC (site ACAAAGACTGC)” to “TAGATCACTTGGGTTCTAACCTGTTGCAT (site TAGGTCACTAT)”, the “recombinant barcode read abundance (log10)” value falls from 0.656 to 0.0386.

“GATTCGACTTGGGTTCTAACCTGTTGCGT (site CTGGACCCTCG)” and “CTAGACTCTTGGGTTCTAACCTGTTGCAC (site CTAGACTCTTT)” are within 0.2 log units of each other in “recombinant barcode read abundance (log10)” value: 0.0133 for the first, 0.11 for the second.

Compared with “CTTCGCACTTGGGTTCTAACCTGTTGCCT (site CTTCGCACTAG)”, “TAGCATACTTGGGTTCTAACCTGTTGCCT (site TAGCATACTGG)” is higher in “recombinant barcode read abundance (log10)” value: 0.0708 for the first, 0.308 for the second.

First: TTGGAAGCTTGGGTTCTAACCTGTTGCCT (site TTGGAAGCTAG)
Second: TAGCATACTTGGGTTCTAACCTGTTGCCT (site TAGCATACTCG)
The “recombinant barcode read abundance (log10)” value of the first is higher: 2.1 for the first, 0.112 for the second.

“ACCCAAACTTGGGTTCTAACCTGTTGCCT (site ACCCAACCTAG)” and “CCTCAGGCTTGGGTTCTAACCTGTTGCCT (site CCTCAGGCTGG)” are within 0.2 log units of each other in “recombinant barcode read abundance (log10)” value: 0.0677 for the first, 0.107 for the second.

Going from “GAGATCCCTTGGGTTCTAACCTGTTGCCA (site GGGGTCCCTTG)” to “ATGCGAGCTTGGGTTCTAACCTGTTGCAG (site ATGCGAGCTCT)”, the “recombinant barcode read abundance (log10)” value rises from 0.235 to 1.87.

Compared with “GACAGGCCTTGGGTTCTAACCTGTTGCCT (site CACGGGCCTAG)”, “CTACACCCTTGGGTTCTAACCTGTTGCGA (site CTACACCCTTC)” is higher in “recombinant barcode read abundance (log10)” value: 0.041 for the first, 2.39 for the second.

“GTGAGAGCTTGGGTTCTAACCTGTTGCGG (site GTGAGCACTCC)” and “ACGACGTCTTGGGTTCTAACCTGTTGCTT (site TCGACGCCTAA)” are within 0.2 log units of each other in “recombinant barcode read abundance (log10)” value: 0.0453 for the first, 0.08 for the second.

Going from “AATATCTCTTGGGTTCTAACCTGTTGCCA (site CTACCTACTCC)” to “GTGTGTGCTTGGGTTCTAACCTGTTGCCT (site GTGTGTACTAG)”, the “recombinant barcode read abundance (log10)” value rises from 0.144 to 0.821.

“CTTTGAACTTGGGTTCTAACCTGTTGCTA (site CTTTGAACTTA)” and “CTAGCTCCTTGGGTTCTAACCTGTTGCTT (site GCTTGGTCTTC)” are within 0.2 log units of each other in “recombinant barcode read abundance (log10)” value: 0.016 for the first, 0.0776 for the second.

“CAAGCACCTTGGGTTCTAACCTGTTGCTT (site CAAACACCTAA)” and “TAACGGGCTTGGGTTCTAACCTGTTGCCG (site TAAAGGGCTAG)” are within 0.2 log units of each other in “recombinant barcode read abundance (log10)” value: 0.121 for the first, 0.0666 for the second.

“GAGATATCTTGGGTTCTAACCTGTTGCCT (site GAGAAATCTAG)” and “TTGGTCGCTTGGGTTCTAACCTGTTGCCT (site TTGGACGCTAG)” are within 0.2 log units of each other in “recombinant barcode read abundance (log10)” value: 0.223 for the first, 0.0736 for the second.

Going from “GAGTGAGCTTGGGTTCTAACCTGTTGCAT (site GAGAGAGCTAT)” to “GAGCCACCTTGGGTTCTAACCTGTTGCCA (site GAGCCACCTTG)”, the “recombinant barcode read abundance (log10)” value rises from 0.645 to 1.02.
